In patent US20230407243A1, “GENETIC PLATFORM TO INVESTIGATE THE FUNCTIONS OF BACTERIAL DRUG EFFLUX PUMPS” (priority 2022, published 2023):
Read-outs that look alike come from different tables or passages of the source.

What was measured:
Format in all cases: cell-based, Escherichia coli
EKO-35 araC::acrB = experiment: MIC susceptibility profiling, efflux platform; conditions: for Fold change of MICs: EKO-35 araC::acrB compared to EKO-35
Outline: (§1)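 Broth MIC in cation-adjusted Mueller-Hinton (MHB II) following twofold compound titration in duplicate. Bacteria were prepared at OD600 ~1.0 in PBS and diluted 1/2000. Endpoint OD600 after 18 h at 37 °C was corrected using the pre-incubation reading.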

EKO-35 araC::acrEF = experiment: MIC susceptibility profiling, efflux platform; conditions: for Fold change of MICs: EKO-35 araC::acrEF compared to EKO-35
Outline: as §1

EKO-35 araC::mdtBC = experiment: MIC susceptibility profiling, efflux platform; conditions: for Fold change of MICs: EKO-35 araC::mdtBC compared to EKO-35
Outline: as §1

EKO-35 araC::emrAB = experiment: MIC susceptibility profiling, efflux platform; conditions: for Fold change of MICs: EKO-35 araC::emrAB compared to EKO-35
Outline: as §1

[1] = test system: EKO-35 araC::mexCD (MexCD from P. aeruginosa); experiment: MIC susceptibility profiling, efflux platform; conditions: for Fold change of MICs: EKO-35 araC::mexCD compared to EKO-35
Outline: as §1

EKO-35 araC::mdtEF = experiment: MIC susceptibility profiling, efflux platform; conditions: for Fold change of MICs: EKO-35 araC::mdtEF compared to EKO-35
Outline: as §1

EKO-35 araC::emrKY = experiment: MIC susceptibility profiling, efflux platform; conditions: for Fold change of MICs: EKO-35 araC::emrKY compared to EKO-35
Outline: as §1

EKO-35 araC::acrD = experiment: MIC susceptibility profiling, efflux platform; conditions: for Fold change of MICs: EKO-35 araC::acrD compared to EKO-35
Outline: as §1

EKO-35 araC::acrBD408A = experiment: MIC susceptibility profiling, efflux platform; conditions: for Fold change of MICs: EKO-35 araC::acrBD408A compared to EKO-35
Outline: as §1

EKO-35 araC::macAB = experiment: MIC susceptibility profiling, efflux platform; conditions: for Fold change of MICs: EKO-35 araC::macAB compared to EKO-35
Outline: as §1

[2] = test system: wild-type E. coli K-12 str. BW25113; experiment: microbe, parasite or virus in culture; conditions: for MIC: Escherichia coli
Outline: as §1

E. coli ΔtolC = experiment: microbe, parasite or virus in culture; conditions: for Minimum inhibitory concentration (MIC), ΔtolC: Table 10, without pore
Outline: as §1

E. coli EKO-35 = experiment: microbe, parasite or virus in culture; conditions: for Fold change of MICs: EKO-35 compared to EKO-35 (reference); for MIC: Escherichia coli
Outline: as §1

EKO-35 araC::macAB Pore = experiment: MIC susceptibility profiling, porinated efflux platform; conditions: for Fold changes of MICs: EKO-35 araC::macAB Pore compared to EKO-35-Pore
Outline: (§2)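 Strains carry the fhuA ΔC/Δ4L pore integrated between glmS and pstS under a constitutive promoter, with pore activity checked by vancomycin susceptibility. Overnight LB cultures were adjusted in PBS pH 7.4 to OD600 ~1.0 and diluted 1/2000 into MHB II. 2-fold compound titrations were read by OD600 after 18 h at 37 °C.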

EKO-35 araC::acrEF Pore = experiment: as above; conditions: for Fold changes of MICs: EKO-35 araC::acrEF Pore compared to EKO-35-Pore
Outline: as §2

EKO-35 araC::emrKY Pore = experiment: as above; conditions: for Fold changes of MICs: EKO-35 araC::emrKY Pore compared to EKO-35-Pore
Outline: as §2

EKO-35 araC::mdtEF Pore = experiment: as above; conditions: for Fold changes of MICs: EKO-35 araC::mdtEF Pore compared to EKO-35-Pore
Outline: as §2

wild-type (WT) K-12-Pore = experiment: microbe, parasite or virus in culture; conditions: for MIC: Escherichia coli
Outline: as §2

ΔtolC-Pore = experiment: microbe, parasite or virus in culture; conditions: for Minimum inhibitory concentration (MIC), Pore ΔtolC: Table 10, with pore
Outline: as §2

[3] = Table 13A, non-porinated, technical duplicate
[4] = Table 13B, non-porinated, technical duplicate
[5] = Table 10, without pore, technical duplicate
[6] = Table 14A, porinated, technical duplicate

NCCCNCCCCNCCCN [Spermine]
Fold change of MICs (EKO-35 araC::acrB): 1 fold | Fold change of MICs (EKO-35 araC::acrEF): 1 fold | Fold change of MICs (EKO-35 araC::mdtBC): 1 fold | Fold change of MICs (EKO-35 araC::emrAB): 1 fold | Fold change of MICs [1]: 1 fold | MIC ([1]; Table 13B, non-porinated, technical duplicate, read-out: Minimum Inhibitory Concentration, EKO-35 araC::mexCD): 2000 µg/mL | Fold change of MICs (EKO-35 araC::mdtEF): 1 fold | Fold change of MICs (EKO-35 araC::emrKY): 1 fold | Fold change of MICs (EKO-35 araC::acrD): 1 fold | Fold change of MICs (EKO-35 araC::acrBD408A): 1 fold | Fold change of MICs (EKO-35 araC::macAB): 1 fold | MIC ([2]; BW25113, read-out: Minimum Inhibitory Concentration, K-12): 2000 µg/mL | MIC ([2]; BW25113, read-out: Minimum inhibitory concentration (MIC), K-12): 2000 µg/mL | MIC (E. coli ΔtolC; Escherichia coli, 18 h, read-out: Minimum Inhibitory Concentration, ΔtolC): 2000 µg/mL | Minimum inhibitory concentration (MIC), ΔtolC (E. coli ΔtolC; technical duplicate): 2000 µg/mL | Fold change of MICs (E. coli EKO-35): 1 fold | MIC (E. coli EKO-35; EKO35, read-out: Minimum Inhibitory Concentration, EKO-35): 2000 µg/mL | MIC (E. coli EKO-35; EKO35, read-out: Minimum inhibitory concentration (MIC), EKO-35): 2000 µg/mL | Fold changes of MICs (EKO-35 araC::macAB Pore): 1 fold | Fold changes of MICs (EKO-35 araC::acrEF Pore): 1 fold | Fold changes of MICs (EKO-35 araC::emrKY Pore): 1 fold | Fold changes of MICs (EKO-35 araC::mdtEF Pore): 1 fold | MIC (wild-type (WT) K-12-Pore; read-out: Minimum inhibitory concentration (MIC), Pore K-12): 2000 µg/mL | MIC (wild-type (WT) K-12-Pore; read-out: Minimum inhibitory concentration, K-12 (WT)-Pore): 2000 µg/mL | MIC (ΔtolC-Pore; Escherichia coli, 18 h, read-out: Minimum inhibitory concentration, ΔtolC-Pore): 2000 µg/mL | Minimum inhibitory concentration (MIC), Pore ΔtolC (ΔtolC-Pore; technical duplicate): 2000 µg/mL

C=C1CCO[C@]2([C@@H](O)[C@@](C)(O)CO)NC(=O)[C@@]1(O)NC2=O [Bicyclomycin]
Fold change of MICs (EKO-35 araC::acrB): 1 fold | Minimum Inhibitory Concentration, EKO-35 araC::acrB (EKO-35 araC::acrB; [3]): 200 µg/mL | Fold change of MICs (EKO-35 araC::acrEF): 1 fold | Minimum Inhibitory Concentration, EKO-35 araC::acrEF (EKO-35 araC::acrEF; [3]): 200 µg/mL | Fold change of MICs (EKO-35 araC::mdtBC): 1 fold | Minimum Inhibitory Concentration, EKO-35 araC::mdtBC (EKO-35 araC::mdtBC; [4]): 200 µg/mL | Fold change of MICs (EKO-35 araC::emrAB): 1 fold | Minimum Inhibitory Concentration, EKO-35 araC::emrAB (EKO-35 araC::emrAB; [4]): 200 µg/mL | Fold change of MICs [1]: 1 fold | Minimum Inhibitory Concentration, EKO-35 araC::mexCD [1, 4]: 200 µg/mL | Fold change of MICs (EKO-35 araC::mdtEF): 1 fold | Minimum Inhibitory Concentration, EKO-35 araC::mdtEF (EKO-35 araC::mdtEF; [3]): 200 µg/mL | Fold change of MICs (EKO-35 araC::emrKY): 1 fold | Minimum Inhibitory Concentration, EKO-35 araC::emrKY (EKO-35 araC::emrKY; [4]): 200 µg/mL | Fold change of MICs (EKO-35 araC::acrD): 1 fold | Minimum Inhibitory Concentration, EKO-35 araC::acrD (EKO-35 araC::acrD; [3]): 200 µg/mL | Fold change of MICs (EKO-35 araC::acrBD408A): 1 fold | Minimum Inhibitory Concentration, EKO-35 araC::acrBD408A (EKO-35 araC::acrBD408A; [4]): 200 µg/mL | Fold change of MICs (EKO-35 araC::macAB): 1 fold | Minimum Inhibitory Concentration, EKO-35 araC::macAB (EKO-35 araC::macAB; [4]): 200 µg/mL | Minimum inhibitory concentration (MIC), K-12 [2, 5]: 200 µg/mL | Minimum Inhibitory Concentration, K-12 [2, 3]: 200 µg/mL | Minimum inhibitory concentration (MIC), ΔtolC (E. coli ΔtolC; technical duplicate): 200 µg/mL | Minimum Inhibitory Concentration, ΔtolC (E. coli ΔtolC; [3]): 200 µg/mL | Fold change of MICs (E. coli EKO-35): 1 fold | Minimum inhibitory concentration (MIC), EKO-35 (E. coli EKO-35; [5]): 200 µg/mL | Minimum Inhibitory Concentration, EKO-35 (E. coli EKO-35; [3]): 200 µg/mL | Fold changes of MICs (EKO-35 araC::macAB Pore): 1 fold | Minimum inhibitory concentration (EKO-35 araC::macAB Pore; EKO-35 araC::macAB Pore, technical duplicate): 200 µg/mL | Fold changes of MICs (EKO-35 araC::acrEF Pore): 1 fold | Minimum inhibitory concentration, EKO-35 araC::acrEF Pore (EKO-35 araC::acrEF Pore; [6]): 200 µg/mL | Fold changes of MICs (EKO-35 araC::emrKY Pore): 1 fold | Minimum inhibitory concentration (EKO-35 araC::emrKY Pore; EKO-35 araC::emrKY Pore, technical duplicate): 200 µg/mL | Fold changes of MICs (EKO-35 araC::mdtEF Pore): 1 fold | Minimum inhibitory concentration, EKO-35 araC::mdtEF Pore (EKO-35 araC::mdtEF Pore; [6]): 200 µg/mL | Minimum inhibitory concentration (MIC), Pore K-12 (wild-type (WT) K-12-Pore; Table 10, with pore, technical duplicate): 200 µg/mL | Minimum inhibitory concentration, K-12 (WT)-Pore (wild-type (WT) K-12-Pore; [6]): 200 µg/mL | Minimum inhibitory concentration (MIC), Pore ΔtolC (ΔtolC-Pore; technical duplicate): 200 µg/mL | Minimum inhibitory concentration, ΔtolC-Pore (ΔtolC-Pore; [6]): 200 µg/mL
